In US7988972B2, “Immunoreactive peptides from Epstein-Barr virus” (Ortho-Clinical Diagnostics, Inc., priority 1993, dated 2011):

Columns and labels:
[1] = system: peripheral blood lymphocytes (PBL); assay: Proliferation assay of peripheral blood lymphocytes (3H-thymidine incorporation); format: cell-based, human; details: for 3H-thymidine Incorporation (cpm + S.D.) / S.I. (stimulation index): PBL from anti-VCA-positive, anti-EA-positive donor, 5 days
Description: Proliferation assays. T-cell proliferation assays using the native p17 or p50 polypeptide or the synthetic peptides were performed as previously described in detail (Pothen et al., Int. J. Cancer, 49:656-660, 1991). Briefly, peripheral blood lymphocytes (PBLO from sero-positive donors were isolated on FICOLL-HYPAQUE gradients, washed and resuspended in RPMI 1640 media containing 10% heat-inactivated human A^+ serum from a sero-negative donor. Cells (1×10^5 per 0.1 ml) were then added to each well in 96-well, round-bottomed tissue culture plates (Costar, Cambridge, Mass.). The different antigen preparations were added to triplicate wells in 0.1 ml volumes and the plates were incubated at 37° C. for 5 days. ^3H-thymidine (5 Ci per mM) was added at a concentration of 1 μCi per well over the last 4 hours of culture. The cells were then harvested with a multichannel sample harvester and ^3H-thymidine incorporation was determined using a Beckman Model LS 3801 liquid scintillation counter. Stimulation indices for the test antigens were calculated by dividing the average counts per minute (CPMO for the test antigens by the average CPM of the medium control wells.
PBL from asymptomatic EBV-infected individuals were tested for response to any of the three p17 synthetic peptides (Table 1) by a proliferation assay using lymphocytes previously shown to proliferate in the presence of native p17 (Pothen et al., Int. J. Cancer, 49:656-660, 1991). Different concentrations of the synthetic peptides were incubated with the PBL for 5 days and then proliferation was assayed by the incorporation of ^3H-thymidine. The native p17 purified from activated P3HR-1 cells gave a S.I. of 15.8 in this experiment. […] Neither of the other synthetic peptides induced a proliferation response at the concentrations tested.
PBL from 3 anti-VCA-positive anti-EA-antibody-negative individuals were also examined in the proliferation assay with the three synthetic peptides. Again, all 3 PBL preparations responded to the highest concentrations of p17.1 with S.I.'s ranging from 3.5-11. Two of the preparations (FIG. 2A,C) also proliferated in the presence of lower concentrations of antigen with S.I.'s of 3 and 5 respectively. […] These experiments established that T-lymphocytes from EBV-infected individuals, irrespective of the presence of antibody to EA, recognized a dominant epitope on p17.

[2] = system: CD4+ T-cell subpopulation; assay: Proliferation assay with CD4+-enriched T-cell subpopulation; format: cell-based, human
Description: PBL enriched for T-cell subpopulations were isolated by depleting a particular population by antibody/complement-mediated cytotoxicity. CD4^+ cells were prepared by lysing CD8^+ cells with anti-CD8 antibody and rabbit complement whereas the CD8^+ T cell subpopulation was enriched by lysing CD4^+ cells with an anti-CD4 antibody and rabbit complement.
PBL were resuspended in RPMI-1640 medium containing 2 mM L-glutamine, 25 mM HEPES, and 10 μg per ml gentamicin (HEPES media) at a concentration of 20×10^6 cells per ml. T cell specific MAb, OKT4 or OKT8 (Ortho Diagnostics Inc.), was added to the cells at the optimal concentration (previously determined by titration to give maximal lysis) and incubated on ice for 30 minutes. The cells were then washed with fresh HEPES media and resuspended at 10×10^6 cells per ml in baby rabbit complement (Pel-Freez Clinical Systems) diluted with the HEPES media to the appropriate concentration (previously assayed to give maximal antibody-specific cytotoxicity). The cells were incubated for 45 minutes in a 37° C. water bath with gentle mixing every 15 minutes. After incubation, the cells were washed thoroughly with the HEPES media and an aliquot (1-2×10^6) of cells was removed and stained for flow cytometric analysis which was performed as described below. […]

ETFTETWNRFITHTE [p17.1, synthetic peptide from 17 Kd early antigen (EA-R) region of EBV]
S.I. ([1]; PBL from 3 anti-VCA-positive anti-EA-antibody-negative individuals, highest concentrations): 3.5-11
3H-thymidine Incorporation (cpm + S.D.) ([1]; 3.12 μg/ml): 263 ± 57 cpm
S.I. (stimulation index) ([1]; 3.12 μg/ml): 1.8
3H-thymidine Incorporation (cpm + S.D.) ([1]; 12.5 μg/ml): 689 ± 88 cpm
S.I. (stimulation index) ([1]; 12.5 μg/ml): 4.7
3H-thymidine Incorporation (cpm + S.D.) ([1]; 50 μg/ml): 1584 ± 37 cpm
S.I. (stimulation index) ([1]; 50 μg/ml): 10.8
S.I. ([1]; PBL preparation of FIG. 2A (anti-VCA-positive, anti-EA-negative), lower concentrations of antigen): 3
S.I. ([1]; PBL preparation of FIG. 2C (anti-VCA-positive, anti-EA-negative), lower concentrations of antigen): 5
proliferation response ([1]; unfractionated PBL of donors A and B, highest concentrations tested (100 μg per ml donor A, 50 μg per ml donor B)): proliferated
S.I. ([2]; CD4+ subpopulation from donor A, different concentrations): ≤ 5.3
proliferation response ([2]; CD4+ subpopulation from donor B): responded
